Laboratory results reported in BigSolDB 2.1.

## Cc1ccc(C)c(O)c1
In ethyl acetate, 282.85 K
  solubility (mole fraction): 0.414
In ethyl acetate, 289.95 K
  solubility (mole fraction): 0.449
In ethyl acetate, 298.45 K
  solubility (mole fraction): 0.494
In ethyl acetate, 304.35 K
  solubility (mole fraction): 0.529
In ethyl acetate, 309.95 K
  solubility (mole fraction): 0.563
In ethyl acetate, 314.75 K
  solubility (mole fraction): 0.596
In ethyl acetate, 329.05 K
  solubility (mole fraction): 0.713
In methanol, 281.05 K
  solubility (mole fraction): 0.273
In methanol, 284.75 K
  solubility (mole fraction): 0.291
In methanol, 289.15 K
  solubility (mole fraction): 0.315
In methanol, 293.75 K
  solubility (mole fraction): 0.342
In methanol, 299.45 K
  solubility (mole fraction): 0.381
In methanol, 305.85 K
  solubility (mole fraction): 0.425
In methanol, 307.25 K
  solubility (mole fraction): 0.435
In methanol, 314.25 K
  solubility (mole fraction): 0.492
In methanol, 317.25 K
  solubility (mole fraction): 0.522
In methanol, 321.15 K
  solubility (mole fraction): 0.563
In n-butanol, 281.15 K
  solubility (mole fraction): 0.308
In n-butanol, 285.65 K
  solubility (mole fraction): 0.331
In n-butanol, 289.9 K
  solubility (mole fraction): 0.354
In n-butanol, 294.45 K
  solubility (mole fraction): 0.38
In n-butanol, 298.9 K
  solubility (mole fraction): 0.408
In n-butanol, 304.95 K
  solubility (mole fraction): 0.449
In n-butanol, 311.65 K
  solubility (mole fraction): 0.501
In n-butanol, 317.25 K
  solubility (mole fraction): 0.551
In n-butanol, 322.75 K
  solubility (mole fraction): 0.608
In n-butanol, 331.2 K
  solubility (mole fraction): 0.706
In n-hexanol, 282.6 K
  solubility (mole fraction): 0.325
In n-hexanol, 288.75 K
  solubility (mole fraction): 0.356
In n-hexanol, 293.25 K
  solubility (mole fraction): 0.378
In n-hexanol, 296.65 K
  solubility (mole fraction): 0.4
In n-hexanol, 300.35 K
  solubility (mole fraction): 0.424
In n-hexanol, 310.75 K
  solubility (mole fraction): 0.498
In n-hexanol, 321.65 K
  solubility (mole fraction): 0.598
In n-hexanol, 326.55 K
  solubility (mole fraction): 0.652
In n-hexanol, 331.05 K
  solubility (mole fraction): 0.707
In n-hexanol, 335.35 K
  solubility (mole fraction): 0.764
